In patent US20240381872A1, “SUBSTITUTED 2,3-DIHYDRO[1,3]THIAZOLO[4,5-B]PYRIDINES, SALTS THEREOF AND THEIR USE AS HERBICIDALLY ACTIVE SUBSTANCES” (BAYER AKTIENGESELLSCHAFT, priority 2021, published 2024):

Columns and labels:
Format in all cases: in vivo
[1] = test system: Alopecurus myosuroides (ALOMY); experiment: Herbicidal pre-emergence action, section A (Table A2); settings: visual grading after ca. 3 weeks vs untreated controls; for pest or weed control at 1280 g/ha: Alopecurus myosuroides, pre-emergence, 504 h, application rate 1280 g/ha, read-out: pre-emergence activity against ALOMY in %
In short: (§1)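 Pre-emergence soil-surface application: WP or EC formulations in water plus 0.5% additive, sprayed at 600 l/ha onto soil covering seeds sown in sandy loam. Visual percent damage rated at about 3 weeks against untreated pots, 100% meaning plants died off and 0% meaning like controls.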

[2] = test system: Stellaria media (STEME); experiment: Herbicidal pre-emergence action, section A (Table A9); settings: for pest or weed control at 320 g/ha / pest or weed control at 1280 g/ha: Stellaria media, 504 h, read-out: pre-emergence activity against STEME in %; for pest or weed control at 1280 g/ha: application rate 1280 g/ha
In short: as §1

[3] = test system: Digitaria sanguinalis (DIGSA); experiment: Herbicidal post-emergence action, section B (Table B12); settings: visual rating about 3 weeks after treatment vs untreated controls
In short: (§2)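 In this greenhouse assay, compounds in WP or EC form were applied post-emergence with 0.5% additive at a water rate of 600 liters per hectare. Treatment took place at the one-leaf stage, and injury was rated visually about 3 weeks later against untreated plants.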

[4] = test system: Alopecurus myosuroides (ALOMY); experiment: Herbicidal pre-emergence action, section C (Table C2); settings: visual grading after ca. 3 weeks vs untreated controls; for pest or weed control at 320 g/ha / pest or weed control at 80 g/ha: Alopecurus myosuroides, pre-emergence, 504 h, read-out: pre-emergence activity against ALOMY in %; for pest or weed control at 320 g/ha: application rate 320 g/ha
In short: (§3)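 Pre-emergence greenhouse test: visual percent damage scored about 3 weeks after treatment, relative to untreated pots (100% = dead, 0% = no effect). Formulated compounds (WP or EC, plus 0.5% additive) were applied in 600 l water/ha to the covering soil over seeds sown in sandy loam.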

[5] = test system: Setaria viridis (SETVI); experiment: Herbicidal pre-emergence action, section C (Table C8); settings: visual grading after ca. 3 weeks; for pest or weed control at 320 g/ha / pest or weed control at 80 g/ha: Setaria viridis, pre-emergence, 504 h, read-out: pre-emergence activity against SETVI in %; for pest or weed control at 320 g/ha: application rate 320 g/ha
In short: as §3

[6] = test system: Veronica persica (VERPE); experiment: Herbicidal pre-emergence action, section C (Table C10); settings: visual grading after ca. 3 weeks; for pest or weed control at 320 g/ha / pest or weed control at 80 g/ha: Veronica persica, pre-emergence, 504 h, read-out: pre-emergence activity against VERPE in %; for pest or weed control at 320 g/ha: application rate 320 g/ha
From the text: Seeds of mono- and dicotyledonous weed plants and crop plants were sown, in plastic or organic planting pots, in sandy loam and covered with soil. The compounds according to the invention, formulated in the form of wettable powders (WP) or as emulsifiable concentrates (EC), were applied to the surface of the covering soil as aqueous suspension or emulsion, with the addition of 0.5% of an additive, at an application rate of 600 l of water/ha (converted). Following treatment, the pots were placed in a greenhouse and kept under optimum growth conditions for the test plants. The visual grading of the damage to the test plants was carried out after ca. 3 weeks in comparison to untreated controls (herbicidal effect in percent (%): 100% effect=plants have died off, 0% effect=as control plants).

[7] = test system: Amaranthus retroflexus (AMARE); experiment: Herbicidal pre-emergence action, section C (Table C11); settings: visual grading after ca. 3 weeks; for pest or weed control at 80 g/ha / pest or weed control at 320 g/ha: Amaranthus retroflexus, pre-emergence, 504 h, read-out: pre-emergence activity against AMARE in %; for pest or weed control at 80 g/ha: application rate 80 g/ha
In short: as §3

[8] = test system: Triticum aestivum (TRZAS); experiment: Pre-emergence effects on crop plants, section D (Table D2); settings: visual grading after ca. 3 weeks
In short: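 Formulated compound (wettable powder or emulsifiable concentrate) was applied pre-emergence to the soil surface at 320 g/ha or lower. Greenhouse-grown plants were rated visually for percent damage after ca. 3 weeks.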

[9] = test system: Triticum aestivum (TRZAS); experiment: Post-emergence effects on crop plants, section F (Table F2); settings: Triticum aestivum, 504 h, read-out: post-emergence activity against TRZAS in %; for percent crop plant damage (wheat, post-emergence) at 320 g/ha: application rate 320 g/ha; for percent crop plant damage (wheat, post-emergence) at 80 g/ha: application rate 80 g/ha
In short: (§4)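 Percent damage was rated by eye roughly 3 weeks after treatment against untreated plants, where 0% = as control and 100% = died off. Spraying used WP or EC formulations plus 0.5% additive at 600 l water/ha, with rates of 320 g/ha or less. Plants were at the single-leaf stage, sown 2-3 weeks earlier in sandy loam under greenhouse conditions.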

[10] = test system: Oryza sativa (ORYZA); experiment: Post-emergence effects on crop plants, section F (Table F3); settings: for percent crop plant damage at 320 g/ha / percent crop plant damage at 80 g/ha: Oryza sativa, 504 h, read-out: post-emergence activity against ORYZA in %; for percent crop plant damage at 80 g/ha: application rate 80 g/ha
In short: as §4

[11] = test system: Poa annua (POAAN); experiment: Herbicidal post-emergence action, section B (Table B7); settings: visual rating about 3 weeks after treatment vs untreated controls; for pest or weed control at 1280 g/ha / pest or weed control at 320 g/ha: Poa annua, post-emergence, 504 h, read-out: post-emergence activity against POAAN in %; for pest or weed control at 1280 g/ha: application rate 1280 g/ha
In short: as §2

[12] = Digitaria sanguinalis, post-emergence, 504 h, application rate 1280 g/ha, read-out: post-emergence activity against DIGSA in %

SMILES: CC(=O)N1CSc2cc(Br)c(-c3ccccc3Cl)nc21 [Example I-055, 1-[6-bromo-5-(2-chlorophenyl)[1,3]thiazolo[4,5-b]pyridin-3(2H)-yl]ethanone]
- pest or weed control at 1280 g/ha [1]: 90%
- pest or weed control at 320 g/ha ([2]; application rate 320 g/ha): 90%
- pest or weed control at 1280 g/ha [3, 12]: 90%
- pest or weed control at 320 g/ha [4]: 80%
- pest or weed control at 320 g/ha [5]: 100%
- pest or weed control at 320 g/ha [6]: 80%
- pest or weed control at 80 g/ha [7]: 90%
- pre-emergence activity against TRZAS in % (crop plant damage) ([8]; application rate 80 g/ha): 0%
- percent crop plant damage (wheat, post-emergence) at 320 g/ha [9]: 0%
- percent crop plant damage at 320 g/ha ([10]; application rate 320 g/ha): 0%

SMILES: Cc1cc2c(nc1-c1ccccc1F)N(C(=O)C1(C)CC(Cl)=NO1)CS2 (stereo not drawn) [Example I-083]
- pre-emergence activity against ALOMY in % ([1]; application rate 320 g/ha): 100%
- pre-emergence activity against STEME in % ([2]; application rate 320 g/ha): 90%
- post-emergence activity against POAAN in % ([11]; application rate 320 g/ha): 90%
- post-emergence activity against DIGSA in % ([3]; application rate 1280 g/ha): 90%
- pre-emergence activity against ALOMY in % ([4]; application rate 80 g/ha): 90%
- pre-emergence activity against SETVI in % ([5]; application rate 80 g/ha): 100%
- pre-emergence activity against VERPE in % ([6]; application rate 80 g/ha): 80%
- pre-emergence activity against AMARE in % ([7]; application rate 320 g/ha): 90%
- post-emergence activity against ORYZA in % ([10]; crop plant damage, application rate 320 g/ha): 10%

SMILES: CC(C)C(=O)N1C[S+]([O-])c2cc(Br)c(-c3ccccc3)nc21 (stereo not drawn) [Example I-067]
- pest or weed control at 320 g/ha [4]: 90%
- pest or weed control at 320 g/ha [5]: 100%
- pest or weed control at 320 g/ha [6]: 80%
- pest or weed control at 80 g/ha [7]: 80%
- pre-emergence activity against TRZAS in % (crop plant damage) ([8]; application rate 80 g/ha): 10%
- percent crop plant damage (wheat, post-emergence) at 320 g/ha [9]: 0%
- percent crop plant damage at 320 g/ha ([10]; application rate 320 g/ha): 0%

SMILES: Cc1cc2c(nc1-c1ccccc1Cl)NCS2 [Example I-049, 5-(2-chlorophenyl)-6-methyl-2,3-dihydro[1,3]thiazolo[4,5-b]pyridine]
- pest or weed control at 320 g/ha [4]: 100%
- pest or weed control at 80 g/ha ([5]; application rate 80 g/ha): 100%
- pest or weed control at 320 g/ha [6]: 80%
- pest or weed control at 80 g/ha [7]: 80%
- pre-emergence activity against TRZAS in % (crop plant damage) ([8]; application rate 80 g/ha): 20%
- percent crop plant damage (wheat, post-emergence) at 80 g/ha [9]: 10%
- percent crop plant damage at 80 g/ha [10]: 20%

SMILES: CCS(=O)(=O)N1CSc2cc(C)c(-c3ccccc3F)nc21 [Example I-060, 3-(ethylsulfonyl)-5-(2-fluorophenyl)-6-methyl-2,3-dihydro[1,3]thiazolo[4,5-b]pyridine]
- pest or weed control at 1280 g/ha [1]: 90%
- pest or weed control at 320 g/ha ([2]; application rate 320 g/ha): 90%
- pest or weed control at 1280 g/ha [11]: 90%
- pest or weed control at 320 g/ha ([3]; Digitaria sanguinalis, post-emergence, 504 h, application rate 320 g/ha, read-out: post-emergence activity against DIGSA in %): 90%
- pest or weed control at 80 g/ha ([4]; application rate 80 g/ha): 100%
- pest or weed control at 80 g/ha ([5]; application rate 80 g/ha): 100%
- pest or weed control at 80 g/ha ([6]; application rate 80 g/ha): 90%
- pest or weed control at 320 g/ha ([7]; application rate 320 g/ha): 90%
- percent crop plant damage (wheat, post-emergence) at 80 g/ha [9]: 0%
- percent crop plant damage at 80 g/ha [10]: 0%

SMILES: Cc1cc2c(nc1-c1cccc(F)c1F)NCS2 [Example I-029, 5-(2,3-difluorophenyl)-6-methyl-2,3-dihydro[1,3]thiazolo[4,5-b]pyridine]
- pest or weed control at 1280 g/ha [1]: 90%
- pest or weed control at 320 g/ha ([2]; application rate 320 g/ha): 90%
- pest or weed control at 1280 g/ha [11]: 90%
- pest or weed control at 80 g/ha ([4]; application rate 80 g/ha): 100%
- pest or weed control at 80 g/ha ([5]; application rate 80 g/ha): 100%
- pest or weed control at 320 g/ha [6]: 80%
- pest or weed control at 80 g/ha [7]: 80%
- percent crop plant damage (wheat, post-emergence) at 80 g/ha [9]: 10%
- percent crop plant damage at 80 g/ha [10]: 0%

SMILES: Cc1cc2c(nc1-c1ccccc1F)NCS2 [Example I-007, 5-(2-fluorophenyl)-6-methyl-2,3-dihydro[1,3]thiazolo[4,5-b]pyridine]
- pest or weed control at 1280 g/ha [1]: 100%
- pest or weed control at 1280 g/ha [2]: 90%
- pest or weed control at 1280 g/ha [11]: 90%
- pest or weed control at 320 g/ha [4]: 100%
- pest or weed control at 80 g/ha ([5]; application rate 80 g/ha): 100%
- pest or weed control at 320 g/ha [6]: 80%
- percent crop plant damage at 80 g/ha [10]: 10%

SMILES: CCS(=O)(=O)N1C[S+]([O-])c2cc(C)c(-c3ccccc3C)nc21 (stereo not drawn) [Example I-074]
- pest or weed control at 1280 g/ha [1]: 90%
- pest or weed control at 320 g/ha ([2]; application rate 320 g/ha): 90%
- pest or weed control at 320 g/ha ([11]; application rate 320 g/ha): 90%
- pest or weed control at 1280 g/ha [3, 12]: 90%
- pest or weed control at 80 g/ha ([4]; application rate 80 g/ha): 80%
- pest or weed control at 320 g/ha [5]: 100%
- pest or weed control at 80 g/ha ([6]; application rate 80 g/ha): 80%
- pest or weed control at 80 g/ha [7]: 90%
- pre-emergence activity against TRZAS in % (crop plant damage) ([8]; application rate 80 g/ha): 0%
- percent crop plant damage (wheat, post-emergence) at 80 g/ha [9]: 0%
- percent crop plant damage at 80 g/ha [10]: 0%

SMILES: Fc1ccccc1-c1nc2c(cc1Br)SCN2 [Example I-001, 6-bromo-5-(2-fluorophenyl)-2,3-dihydro[1,3]thiazolo[4,5-b]pyridine]
- pest or weed control at 320 g/ha [4]: 100%
- pest or weed control at 80 g/ha ([5]; application rate 80 g/ha): 100%
- pest or weed control at 320 g/ha [6]: 80%
- pest or weed control at 320 g/ha ([7]; application rate 320 g/ha): 90%
- percent crop plant damage (wheat, post-emergence) at 80 g/ha [9]: 0%
- percent crop plant damage at 320 g/ha ([10]; application rate 320 g/ha): 20%

SMILES: CCc1ccccc1-c1nc2c(cc1C)[S+]([O-])CN2 (stereo not drawn) [Example I-047]
- pest or weed control at 1280 g/ha [2]: 90%
- pest or weed control at 320 g/ha ([11]; application rate 320 g/ha): 90%
- pest or weed control at 320 g/ha [5]: 100%
- pest or weed control at 80 g/ha ([6]; application rate 80 g/ha): 80%
- pest or weed control at 80 g/ha [7]: 90%
- pre-emergence activity against TRZAS in % (crop plant damage) ([8]; application rate 320 g/ha): 10%
- percent crop plant damage (wheat, post-emergence) at 320 g/ha [9]: 0%
- percent crop plant damage at 320 g/ha ([10]; application rate 320 g/ha): 0%
